Results published in ChEMBL document CHEMBL5055666, “Tyrosine-Derived Novel Benzoxazine Active in a Rat Syngenic Mammary Tumor Model of Breast Cancer” (J Med Chem, 2021).
Calls of active or inactive are those of the source. The rule behind the calls is not given here.

Columns and labels:
MCF-10A [1] = assay: Antiproliferative activity against human MCF-10A cells assessed as inhibition of cell growth incubated for 72 hrs by MTT assay; type: cell-based
MCF7 [2] = assay: Antiproliferative activity against human MCF7 cells assessed as inhibition of cell growth incubated for 72 hrs by MTT assay; type: functional, cell-based; settings: MCF7, 72 h
Rattus norvegicus [3] = assay: Toxicity in Sprague-Dawley rat inoculated with rat LA7 cells assessed as change in organ weight at 5 to 20 mg/kg administered daily for 21 days; type: organism-based; settings: la7, 504 h, dose 5-20 mg/kg, time 21 day
[4] = Apparent oral volume of distribution in Sprague-Dawley rat at 5 mg/kg, po measured upto 24 hrs; type: ADME, organism-based; settings: in vivo
[5] = Cmax in Sprague-Dawley rat at 0.5 mg/kg, iv measured upto 24 hrs; type: ADME, organism-based; parameters: time < 24 hrs, dose 0.5 mg/kg, route iv; settings: in vivo
MCF7 [6] = assay: Induction of cell cycle arrest in human MCF7 cells assessed as increase in sub-diploid population at 0.125 to 1 uM after 24 to 48 hrs by propidium iodide staining based flow cytometric analysis; type: functional; settings: dose 0.125-1 µM, time 24-48 hrs
MCF7 [7] = assay: Antiproliferative activity against human MCF7 cells assessed as inhibition of cell growth incubated for 48 hrs by MTT assay; type: functional, cell-based; settings: MCF7, 48 h
MDA-MB-231 [8] = assay: Antiproliferative activity against human MDA-MB-231 cells assessed as inhibition of cell growth incubated for 72 hrs by MTT assay; type: functional, cell-based; settings: MDA-MB-231, 72 h
LA7 [9] = assay: Antiproliferative activity against rat LA7 cells assessed as inhibition of cell growth incubated for 24 hrs by MTT assay; type: functional, cell-based; settings: LA7, 24 h
MCF7 [10] = assay: Antiproliferative activity against human MCF7 cells assessed as inhibition of cell growth incubated for 24 hrs by MTT assay; type: functional, cell-based; settings: MCF7, 24 h
Rattus norvegicus [11] = assay: Toxicity in Sprague-Dawley rat inoculated with rat LA7 cells assessed as mortality at 5 to 20 mg/kg administered daily for 21 days; type: organism-based; settings: la7, 504 h, dose 5-20 mg/kg, time 21 day
MDA-MB-231 [12] = assay: Induction of apoptosis in human MDA-MB-231 cells assessed as increase in total apoptotic population at 0.125 to 1 uM after 24 to 48 hrs by Annexin V-FITC/propidium iodide staining based flow cytometric analysis; type: functional, cell-based; settings: dose 0.125-1 µM, time 24-48 hrs
MCF7 [13] = assay: Upregulation of ERbeta expression in human MCF7 cells after 24 hrs by immunoblot analysis; type: functional, cell-based; settings: dose 500-5 µM
MCF7 [14] = assay: Induction of apoptosis in human MCF7 cells assessed as increase in total apoptotic population at 0.125 to 1 uM after 24 to 48 hrs by Annexin V-FITC/propidium iodide staining based flow cytometric analysis; type: functional, cell-based; settings: dose 0.125-1 µM, time 24-48 hrs
[15] = Apparent oral volume of distribution in Sprague-Dawley rat at 0.5 mg/kg, iv measured upto 24 hrs; type: ADME, organism-based; settings: in vivo
[16] = Cmax in Sprague-Dawley rat at 5 mg/kg, po measured upto 24 hrs; type: ADME, organism-based; parameters: time < 24 hrs, dose 5 mg/kg, route po; settings: in vivo
Rattus norvegicus [17] = assay: Toxicity in Sprague-Dawley rat inoculated with rat LA7 cells assessed as increase in uterine tissue at 5 to 20 mg/kg administered daily for 21 days; type: organism-based; settings: la7, 504 h, dose 5-20 mg/kg, time 21 day
MDA-MB-231 [18] = assay: Disruption of mitochondrial membrane integrity in human MDA-MB-231 cells assessed as reduction in mitochondrial membrane potential at 0.125 to 1 uM by JC-1 staining based flow cytometry analysis; type: functional, cell-based; settings: dose 0.125-1 µM
[19] = Induction of cell damage in human HEK293 cells assessed as increase in LDH release at > 20 uM; type: cell-based; settings: hek293, 20 µM
MDA-MB-231 [20] = assay: Induction of apoptosis in human MDA-MB-231 cells assessed as nuclear blabbing after 24 hrs by DAPI staining based fluorescent microscopic analysis; type: functional, cell-based; settings: dose 0.125-1 µM
MCF7 [21] = assay: Disruption of mitochondrial membrane integrity in human MCF7 cells assessed as reduction in mitochondrial membrane potential at 0.125 to 1 uM by JC-1 staining based flow cytometry analysis; type: functional, cell-based; settings: dose 0.125-1 µM
MCF7 [22] = assay: Induction of apoptosis in human MCF7 cells assessed as nuclear blabbing after 24 hrs by DAPI staining based fluorescent microscopic analysis; type: functional, cell-based; settings: dose 0.125-1 µM
MDA-MB-231 [23] = assay: Induction of intracellular ROS generation in human MDA-MB-231 cells at 0.125 to 1 uM incubated for 24 hrs by DCFH-DA staining-based flow cytometric analysis; type: functional, cell-based; settings: dose 0.125-1 µM
[24] = Mean residence time in Sprague-Dawley rat at 5 mg/kg, po measured upto 24 hrs; type: ADME, organism-based; settings: in vivo
[25] = Half life in Sprague-Dawley rat at 0.5 mg/kg, iv measured upto 24 hrs; type: ADME, organism-based; settings: in vivo
LA7 [26] = assay: Antitumor activity against rat LA7 cells inoculated in Sprague-Dawley rat assessed as reduction in formation of neoplastic lesions in lungs at 5 to 20 mg/kg administered daily for 21 days; type: functional, organism-based; settings: dose 5-20 mg/kg, time 21.0 day
MCF7 [27] = assay: Induction of cell damage in human MCF7 cells assessed as increase in LDH release at 0.125 to 100 uM; type: functional, cell-based; settings: dose 0.125-100 µM
[28] = Half life in Sprague-Dawley rat at 5 mg/kg, po measured upto 24 hrs; type: ADME, organism-based; settings: in vivo
MCF-10A [29] = assay: Antiproliferative activity against human MCF-10A cells assessed as inhibition of cell growth incubated for 24 hrs by MTT assay; type: cell-based
MCF7 [30] = assay: Induction of intracellular ROS generation in human MCF7 cells at 0.125 to 1 uM incubated for 24 hrs by DCFH-DA staining-based flow cytometric analysis; type: functional, cell-based; settings: dose 0.125-1 µM
MCF7 [31] = assay: Downregulation of ERalpha expression in human MCF7 cells after 24 hrs by immunoblot analysis; type: functional, cell-based
[32] = Mean residence time in Sprague-Dawley rat at 0.5 mg/kg, iv measured upto 24 hrs; type: ADME, organism-based; settings: in vivo
[33] = Apparent oral clearance in Sprague-Dawley rat at 5 mg/kg, po measured upto 24 hrs; type: ADME, organism-based; settings: in vivo
MCF7 [34] = assay: Induction of apoptosis in human MCF7 cells assessed as nuclear condensation after 24 hrs by DAPI staining based fluorescent microscopic analysis; type: functional, cell-based; settings: dose 0.125-1 µM
[35] = AUC(0 to infinity) in Sprague-Dawley rat at 5 mg/kg, po measured upto 24 hrs; type: ADME, organism-based; parameters: dose 5 mg/kg, time < 24 hrs, route po; settings: in vivo
[36] = Tmax in Sprague-Dawley rat at 5 mg/kg, po measured upto 24 hrs; type: ADME, organism-based; settings: in vivo
LA7 [37] = assay: Antiproliferative activity against rat LA7 cells assessed as inhibition of cell growth incubated for 72 hrs by MTT assay; type: functional, cell-based; settings: LA7, 72 h
MDA-MB-231 [38] = assay: Antiproliferative activity against human MDA-MB-231 cells assessed as inhibition of cell growth incubated for 24 hrs by MTT assay; type: functional, cell-based; settings: MDA-MB-231, 24 h
LA7 [39] = assay: Antiproliferative activity against rat LA7 cells assessed as inhibition of cell growth incubated for 48 hrs by MTT assay; type: functional, cell-based; settings: LA7, 48 h
[40] = Drug release in tris buffer pH 7.4 after 10 min by membrane dialysis method; type: physicochemical; settings: pH 7.4, 10 min
MDA-MB-231 [41] = assay: Induction of cell cycle arrest in human MDA-MB-231 cells assessed as increase in sub-diploid population at 0.125 to 1 uM after 24 to 48 hrs by propidium iodide staining based flow cytometric analysis; type: functional; settings: dose 0.125-1 µM, time 24-48 hrs
[42] = AUC(0 to infinity) in Sprague-Dawley rat at 0.5 mg/kg, iv measured upto 24 hrs; type: ADME, organism-based; parameters: time < 24 hrs, dose 0.5 mg/kg, route iv; settings: in vivo
[43] = Tmax in Sprague-Dawley rat at 0.5 mg/kg, iv measured upto 24 hrs; type: ADME, organism-based; settings: in vivo
MDA-MB-231 [44] = assay: Induction of apoptosis in human MDA-MB-231 cells assessed as nuclear condensation after 24 hrs by DAPI staining based fluorescent microscopic analysis; type: functional, cell-based; settings: dose 0.125-1 µM
MDA-MB-231 [45] = assay: Antiproliferative activity against human MDA-MB-231 cells assessed as inhibition of cell growth incubated for 48 hrs by MTT assay; type: functional, cell-based; settings: MDA-MB-231, 48 h
MDA-MB-231 [46] = assay: Induction of cell damage in human MDA-MB-231 cells assessed as increase in LDH release at 0.125 to 100 uM; type: functional, cell-based; settings: dose 0.125-100 µM
[47] = Apparent oral clearance in Sprague-Dawley rat at 0.5 mg/kg, iv measured upto 24 hrs; type: ADME, organism-based; settings: in vivo
LA7 [48] = assay: Antitumor activity against rat LA7 cells inoculated in Sprague-Dawley rat assessed as inhibition of tumor growth at 5 to 20 mg/kg administered daily for 21 days; type: functional, organism-based; settings: dose 5-20 mg/kg, time 21.0 day

COc1ccc(C[C@H]2COc3ccccc3N2Cc2ccc(OCCN3CCCC3)cc2)cc1
IC50 (MCF-10A [1]): > 18 µM | IC50 (MCF7 [2]): 250 nM | Activity (Rattus norvegicus [3]): Non-Toxic | Vd/F [4]: 140 L/kg | Cmax [5]: 49.6 ng/mL | Activity (MCF7 [6]): Dose-dependent effect | IC50 (MCF7 [7]): 300 nM | IC50 (MDA-MB-231 [8]): 700 nM | IC50 (LA7 [9]): 660 nM | IC50 (MCF7 [10]): 200 nM | Activity (Rattus norvegicus [11]): Non-Toxic | Activity (MDA-MB-231 [12]): Active | Activity (MCF7 [13]): Dose-dependent effect | Activity (MCF7 [14]): Active | Vd/F [15]: 19.9 L/kg | Cmax [16]: 43.2 ng/mL | Activity (Rattus norvegicus [17]): Non-Toxic | Activity (MDA-MB-231 [18]): Active | Activity [19]: Toxic | Activity (MDA-MB-231 [20]): Dose-dependent effect | Activity (MCF7 [21]): Active | Activity (MCF7 [22]): Dose-dependent effect | Activity (MDA-MB-231 [23]): Active | MRT [24]: 16.1 h | half-life [25]: 205 min | Activity (LA7 [26]): Active | Activity (MCF7 [27]): Active | half-life [28]: 538 min | IC50 (MCF-10A [29]): > 25 µM | Activity (MCF7 [30]): Active | Activity (MCF7 [31]): Dose-dependent effect | MRT [32]: 4.66 h | CL/F [33]: 176 mL/min/kg | Activity (MCF7 [34]): Dose-dependent effect | AUC(0-inf) [35]: 506 ng·h/mL | Tmax [36]: 15 min | IC50 (LA7 [37]): 190 nM | IC50 (MDA-MB-231 [38]): 650 nM | IC50 (LA7 [39]): 240 nM | Drug transport [40]: 90% | Activity (MDA-MB-231 [41]): Dose-dependent effect | AUC(0-inf) [42]: 124 ng·h/mL | Tmax [43]: 49.8 min | Activity (MDA-MB-231 [44]): Dose-dependent effect | IC50 (MDA-MB-231 [45]): 700 nM | Activity (MDA-MB-231 [46]): Active | CL/F [47]: 68.8 mL/min/kg | Activity (LA7 [48]): Active
